In patent publication US20100297109A1, “METHODS FOR INHIBITING FASCIN” (Cornell University, priority 2007, published 2010):

Experiments:
[1] = system: human breast tumor MDA-MB 231 cells; assay: Cell migration assay, MDA-MB-231 cells; type: cell-based
Description: (§1) Cells. Mouse 4T1 mammary tumor cells and human MDA-MB-231 breast tumor cells were obtained from ATCC and have been described previously (Shan et al. 2005, Yang et al. 2005). 4T1 cells were cultured in RPMI 1640 medium supplemented with 10% FBS. MDA-MB-231 cells were cultured in DMEM supplemented with 10% FBS. Wound-healing assay. The wound-healing assay involves observing whether confluent cells can migrate across a scrape or wound in the cell layer. Cell migration assays were performed as described previously (Yang et al. 2005, Shan et al 2006). Tumor cells were plated in a 24-well plate coated with gelatin in standard media. […] Photographs several random regions of the filter facing the second chamber are taken and the number of cells counted to calculate the average number of cells that had transmigrated.
(§2) Boyden Chamber Cell Migration Assay. […] Three randomly selected fields (10× objectives) on the lower side of the insert were photographed, and the migrated cells were counted. The migration was expressed as either the average number of migrated cells in a field or as percentage of migrated cells in positive control. Percentage was calculated with the formula P=100×(M−Mnc)/Mpc, where P is the percentage of migrated cells, M is the number of migrated cells, Mnc is the number of migrated cells in negative controls, and Mpc is the number of migrated cells in positive controls.

[2] = system: MDA-MB-231 human breast tumor cells; assay: Experimental lung metastasis of MDA-MB-231 cells in NOD-SCID mice, bioluminescence imaging; type: in vivo, mouse; conditions: 10 mg/kg I.P. every other day for seven weeks
Description: Breast Tumor Metastasis in Mice. All animal work was performed in compliance with the Institutional Animal Care and Use Committee of the Weill Medical College. Spontaneous 4T1 mouse breast tumor metastasis assay was done as described previously (Shan et al. 2005). NOD-SCID immunodeficient mice were used for experimental lung metastasis experiments. MDA-MB-231 human breast tumor cells expressing the TGL reporter were trypsinized and washed with PBS. This artificial TGL reporter gene encodes a triple fusion protein with herpes simplex virus 1 thymidine kinase fused to the N-terminus of enhanced GFP and firefly luciferase fused to the C-terminus of GFP (Ponomarev et al. 2004). Subsequently 1×10^6 cells in 0.2 ml PBS were injected into the lateral tail vein. […] Three randomly selected fields (10×objectives) on the lower side of the insert were photographed, and the cells on the lower surface of the insert were counted.
Third, the experimental metastasis model with MDA-MB-231 human tumor cells in immunodeficient mice was used to investigate the role of fascin in tumor metastasis and the effect of macroketone on the metastasis of human tumors in mice (FIG. 8 E-H). […] GFP-positive cells were enriched by fluorescence-activated cell sorting. […] The metastasis of tumor cells to the lung was monitored by non-invasive bioluminescence imaging (Minn et al. 2005). […]

[3] = system: human breast tumor MDA-MB-231 cells; assay: Wound-healing assay, serum-induced migration of MDA-MB-231 cells; type: cell-based; conditions: 20 μM
Description: as §1, with “media. After the cells grew to confluence, wounds were made in the confluent layer of cell using a sterile instrument such as a sterile pipette tip. The cells were washed with Phosphate Buffered Saline (PBS) or other sterile solutions and then the migration was induced by adding medium supplemented with 10% FBS. When the wound for the positive control closed, cells were fixed with 3.7% formaldehyde and stained with crystal violet staining solution.” for “media.”

4T1 cells = assay: Boyden chamber cell migration assay, serum-induced migration of 4T1 cells; type: cell-based, mouse; conditions: FIGS. 1C and 1D
Description: as §1, §2

SMILES: COC1C=CCCCCC(=O)CCC(C)=CC(C)C1O (stereo not shown) [macroketone, Migrastatin ketone]
- inhibition of migration [1]: inhibited the migration
- reduction of metastasis of MDA-MB-231 cells (photon flux) [2]: > 80%
- inhibition of serum-induced migration (wound-healing) [3]: inhibited the migration
- IC50 (4T1 cells): 100 nM
